Five compounds from ChEMBL document CHEMBL1201862, “PubChem BioAssay data set” (2004) can be followed below.

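In this assay, cells in 96-well plates receive the compound at five concentrations for 48 hours. Endpoints are linearly interpolated between the surrounding concentrations. GI50 = concentration required for 50% inhibition of growth.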 Active and inactive are the calls of the source. Rule as the data show it: active = GI50 up to about 1.1 µM and inactive = higher.

Among the test systems are OVCAR-8; SF-268; M14; SK-MEL-2; MDA-MB-231; SNB-19; SK-MEL-5; RPMI-8226; HL-60; SK-MEL-28; SR; OVCAR-3; TK-10; NCI-H226; MOLT-4; SF-295; MDA-MB-435; EKVX; KM12; COLO 205.
Common to all, as to test: NCI tumour cell line growth inhibition, 48 h

For `CC(C)(C)c1cc(C(P(=O)(c2ccccc2)c2ccccc2)P(=O)(c2ccccc2)c2ccccc2)cc(C(C)(C)C)c1O`, the GI50 in the test on OVCAR-8 was 2440 nM (inactive); with SF-268 it was 2930 nM (inactive); with M14 it was 1750 nM (inactive); with SK-MEL-2 it was 1870 nM (inactive); with MDA-MB-231, 2760 nM (inactive); in the test with SNB-19 it was 3440 nM (inactive). The GI50 was 1540 nM (inactive) in the test with SK-MEL-5; 3190 nM (inactive) with RPMI-8226; 3030 nM (inactive) with HL-60; 1950 nM (inactive) with SK-MEL-28; 2280 nM (inactive) with SR; 2300 nM (inactive) in the test with OVCAR-3. For the same compound, the GI50 in the test on TK-10 was 4680 nM (inactive); with NCI-H226, 3440 nM (inactive); in the test with MOLT-4 it was 2880 nM (inactive); in the test on SF-295, 1920 nM (inactive); in the test with MDA-MB-435 it was 1900 nM (inactive); with EKVX, 2980 nM (inactive). The results for the GI50 with KM12 and with COLO 205 were 1800 nM (inactive) and 1870 nM (inactive), respectively.

Take `CC(=O)CCC[C@@H](C)[C@@H]1O[C@H]([C@@]2(C)CCC(=O)O2)C[C@H]2C(CSc3ccccc3)C(=O)O[C@@H]12` (stereo not given in full): the GI50 with OVCAR-8 is 20000 nM (inactive); in the test on SF-268 it was 20000 nM (inactive); in the test on M14, 13300 nM (inactive); in the test on SK-MEL-2, 17300 nM (inactive); in the test with MDA-MB-231, 18100 nM (inactive); in the test with SNB-19, 33400 nM (inactive). Further, the GI50 is 21400 nM (inactive) with SK-MEL-5; 13300 nM (inactive) in the test on RPMI-8226; 2420 nM (inactive) with HL-60; 18700 nM (inactive) in the test with SK-MEL-28; 6790 nM (inactive) in the test on SR; 13800 nM (inactive) in the test with OVCAR-3. Further, the GI50 in the test with TK-10 is 12600 nM (inactive); in the test with NCI-H226, 14800 nM (inactive); with MOLT-4, 2960 nM (inactive); with SF-295, 44100 nM (inactive); in the test with MDA-MB-435 it was 16100 nM (inactive); in the test on EKVX, 9980 nM (inactive). Further, the GI50 was 15100 nM (inactive) with KM12 and 15600 nM (inactive) in the test on COLO 205.

Turning to `CCCCC[C@@H]1OCO[C@@]2(C)/C=C(C)\C=C/C(=O)O[C@H]([C@@H](C)[C@@H](O)[C@H](C)[C@@]3(O)C[C@@H](O[C@H]4C[C@@H](O)[C@H](O)[C@@H](C)O4)[C@H](C)[C@@H](C)O3)[C@@H](OC)/C=C\C=C(\C)C[C@@H]1[C@@H]2O` (stereo in doubt), the GI50 is < 5 nM (active) with OVCAR-8; < 5 nM (active) in the test on SF-268; < 5 nM (active) with M14; < 5 nM (active) with SK-MEL-2; 23.9 nM (active) in the test with MDA-MB-231; 99.5 nM (active) with SNB-19. For the same compound, the GI50 in the test with SK-MEL-5 was < 5 nM (active); in the test with RPMI-8226, < 5 nM (active); with HL-60, < 5 nM (active); in the test on SK-MEL-28, 72.4 nM (active); in the test with SR, < 5 nM (active); in the test with OVCAR-3 it was < 5 nM (active). Further, the GI50 in the test with TK-10 was 119 nM (active); with NCI-H226, < 5 nM (active); with MOLT-4 it was < 5 nM (active); in the test with SF-295, < 5 nM (active); with MDA-MB-435, < 5 nM (active); in the test on EKVX, < 5 nM (active). For the same compound, the GI50 in the test on KM12 and with COLO 205 was < 5 nM (active) throughout.

On to `Nc1nccc(-c2c[nH]c3cc(Br)ccc23)n1` [MERIDIANIN D], for which the GI50 in the test on OVCAR-8 was 35700 nM (inactive); with SF-268, 31000 nM (inactive); in the test with M14, 24500 nM (inactive); in the test on SK-MEL-2, 20000 nM (inactive); in the test on MDA-MB-231 it was 33200 nM (inactive); in the test on SNB-19, 20700 nM (inactive). The GI50 with SK-MEL-5 is 18900 nM (inactive); in the test on RPMI-8226, 22600 nM (inactive); in the test on HL-60, 29200 nM (inactive); in the test on SK-MEL-28, 30500 nM (inactive); with SR, 17300 nM (inactive); with OVCAR-3, 28800 nM (inactive). Further, the GI50 is 22300 nM (inactive) with TK-10; 45600 nM (inactive) in the test on NCI-H226; 24700 nM (inactive) in the test on MOLT-4; 35300 nM (inactive) in the test with SF-295; 26500 nM (inactive) with MDA-MB-435; 1590 nM (inactive) in the test with EKVX. Moreover, the values for the GI50 in the test on KM12 and in the test with COLO 205 were 24200 nM (inactive) and 18700 nM (inactive), respectively.

`C[C@H]1CC[C@]2(NC1)O[C@H]1C[C@H]3[C@@H]4CC[C@H]5C[C@@H](O[C@@H]6O[C@H](CO)[C@H](O[C@@H]7O[C@H](CO)[C@@H](O)[C@H](O[C@@H]8OC[C@@H](O)[C@H](O)[C@H]8O)[C@H]7O[C@@H]7O[C@H](CO)[C@@H](O)[C@H](O)[C@H]7O)[C@H](O)[C@H]6O)CC[C@]5(C)[C@H]4CC[C@]3(C)[C@H]1[C@@H]2C` [TOMATINE]: the GI50 was 2240 nM (inactive) with OVCAR-8; 1550 nM (inactive) in the test with SF-268; 1430 nM (inactive) in the test with M14; 1680 nM (inactive) in the test with SK-MEL-2; 1300 nM (inactive) in the test on MDA-MB-231; 1240 nM (inactive) in the test with SNB-19. Besides, the GI50 in the test with SK-MEL-5 is 2230 nM (inactive); in the test with RPMI-8226, 766 nM (active); in the test on HL-60 it was 2480 nM (inactive); in the test on SK-MEL-28, 1260 nM (inactive); with SR, 2420 nM (inactive); in the test on OVCAR-3 it was 2030 nM (inactive). In addition, the GI50 was 1540 nM (inactive) with TK-10; 1950 nM (inactive) with NCI-H226; 2410 nM (inactive) in the test with MOLT-4; 1050 nM (active) in the test on SF-295; 1410 nM (inactive) with MDA-MB-435; 836 nM (active) in the test on EKVX. In addition, the results for the GI50 in the test on KM12 and in the test on COLO 205 were 1980 nM (inactive) and 2000 nM (inactive), respectively.
